Experimental data as given in patent US20030118627A1 (DABUR RESEARCH FOUNDATION, priority 2001, published 2003).

Tests used:
MOLT 4 = test: MTT cytotoxicity assay, MOLT 4 leukemia; type: cell-based; conditions: Homo sapiens
Description: (§1) Briefly, a […] MTT cytotoxicity assay was performed, which is based on the principle of uptake of MTT (3-(4,5-dimethylthiazol-2-yl)-2,5-diphenyl tetrazolium bromide), a tetrazolium salt, by the metabolically active cells where it is metabolized by active mitochondria into a blue colored formazan product that is read spectrophoto-metrically. MTT was dissolved in phosphate buffered saline with a pH of 7.4 to obtain an MTT concentration of 5 mg/ml; the resulting mixture was filtered through a 0.22 micron filter to sterilize and remove a small amount of insoluble residue. For each type of tumor cell, 20,000 to 50,000 cells were seeded in a 96-well culture plate and incubated with the combination in a CO2 incubator for 24 hours. […] The assay was terminated after 24 hours by adding 100 ug (20 ul) of MTT to each well, then incubating for additional one hour, and finally adding 50 ul of 10% SDS-0.01N HCl to each well to lyse the cells and dissolve formazan. After incubating for one hour, the plate was read spectrophotometrically at 540 nm and the percentage cytotoxicity calculated.

U87MG = test: MTT cytotoxicity assay, U87MG glioblastoma; type: cell-based; conditions: Homo sapiens, U-87 MG, 24 h, read-out: ED50 values of cytotoxicity
Description: as §1

Hep2 = test: MTT cytotoxicity assay, Hep2 larynx; type: cell-based; conditions: Homo sapiens, HEp-2, 24 h, read-out: ED50 values of cytotoxicity
Description: as §1

KB = test: MTT cytotoxicity assay, KB oral; type: cell-based; conditions: Homo sapiens, 24 h, read-out: ED50 values of cytotoxicity
Description: as §1

Swiss albino mice = conditions: both, mouse, in vivo, po, 15 days
Description: Acute toxicity studies were performed using the oral route of administration.
A batch of 5 female and 5 male mice each was administered the test substance by oral route. […] Another batch of 5 female and 5 male served as control.
Observations were made three times on the day of dosing and twice daily thereafter for the remainder of 14 days or until reversible toxic signs or symptoms subsided. All gross visible toxic signs and symptoms were recorded. Body weights were recorded prior to dosing and weekly thereafter.

MCF7 = test: MTT cytotoxicity assay, MCF7 breast; type: cell-based; conditions: Homo sapiens
Description: as §1

293 = test: MTT cytotoxicity assay, 293 kidney; type: cell-based; conditions: Homo sapiens, HEK293, 24 h, read-out: ED50 values of cytotoxicity
Description: as §1

PA 1 = test: MTT cytotoxicity assay, PA 1 ovary; type: cell-based; conditions: Homo sapiens
Description: as §1

PTC = test: MTT cytotoxicity assay, PTC colon; type: cell-based; conditions: Homo sapiens
Description: as §1

Miapaca2 = test: MTT cytotoxicity assay, Miapaca2 pancreas; type: cell-based; conditions: Homo sapiens
Description: as §1

L132 = test: MTT cytotoxicity assay, L132 lung; type: cell-based; conditions: Homo sapiens
Description: as §1

DU145 = test: MTT cytotoxicity assay, DU145 prostate; type: cell-based; conditions: Homo sapiens
Description: as §1

INT 407 = test: MTT cytotoxicity assay, INT 407 intestine; type: cell-based; conditions: Homo sapiens, 24 h, read-out: ED50 values of cytotoxicity
Description: as §1

[1] = 1.0 mM, read-out: Percent cytotoxicity
[2] = 2.5 mM, read-out: Percent cytotoxicity
[3] = 4 mM, read-out: Percent cytotoxicity
[4] = 5 mM, read-out: Percent cytotoxicity
[5] = 10 mM, read-out: Percent cytotoxicity
[6] = 24 h, read-out: ED50 values of cytotoxicity

`COC(=O)C1CCC(=O)N1C(OC(C)=O)C(C)=O` (stereo not drawn) [MGC-4, N-(1-acetoxy-2-ketopropyl)-methylpyroglutamate] gave an IC50 (MOLT 4; 24 h, Molt 4 Leukemia, read-out: ED50 values of cytotoxicity) of 1500 ± 200 µM, a cytotoxicity at 1000 µM (MOLT 4; MOLT 4 Leukemia, 1.0 mM, read-out: Percent cytotoxicity) of 36.9 ± 3.9% and a cytotoxicity at 2500 µM (MOLT 4; MOLT 4 Leukemia, 2.5 mM, read-out: Percent cytotoxicity) of 57.9 ± 3.1%. It also gave a cytotoxicity at 4000 µM (MOLT 4; MOLT 4 Leukemia, 4 mM, read-out: Percent cytotoxicity) of 78.9 ± 4.9%, a cytotoxicity at 5000 µM (MOLT 4; MOLT 4 Leukemia, 5 mM, read-out: Percent cytotoxicity) of 88.4 ± 7.5% and a cytotoxicity at 10000 µM (MOLT 4; MOLT 4 Leukemia, 10 mM, read-out: Percent cytotoxicity) of 85.9 ± 7.3%. For the same molecule, the IC50 (U87MG) was 2400 ± 500 µM, the IC50 (Hep2) was 3200 ± 800 µM and the IC50 (KB) was 1550 ± 300 µM. For the same molecule, the safe dose (Swiss albino mice) was 100 mg, the IC50 (MCF7; MCF7, 24 h, MCF 7 Breast, read-out: ED50 values of cytotoxicity) was > 5000 µM and the cytotoxicity at 1000 µM (MCF7; MCF7 breast, 1.0 mM, read-out: Percent cytotoxicity) was 0%. It also gave a cytotoxicity at 2500 µM (MCF7; MCF7 breast, 2.5 mM, read-out: Percent cytotoxicity) of 0%, a cytotoxicity at 4000 µM (MCF7; MCF7 breast, 4 mM, read-out: Percent cytotoxicity) of 3.8 ± 0.4% and a cytotoxicity at 5000 µM (MCF7; MCF7 breast, 5 mM, read-out: Percent cytotoxicity) of 23.8 ± 0.8%. For the same molecule, the cytotoxicity at 10000 µM (MCF7; MCF7 breast, 10 mM, read-out: Percent cytotoxicity) was 31.9 ± 2.9%, the IC50 293 was 1400 ± 100 µM and the IC50 (PA 1; 24 h, PA 1 Ovarian, read-out: ED50 values of cytotoxicity) was 1600 ± 200 µM. For the same molecule, the cytotoxicity at 1000 µM (PA 1; PA 1 Ovary, 1.0 mM, read-out: Percent cytotoxicity) was 28.9 ± 3.2%, the cytotoxicity at 2500 µM (PA 1; PA 1 Ovary, 2.5 mM, read-out: Percent cytotoxicity) was 67.9 ± 4.9% and the cytotoxicity at 4000 µM (PA 1; PA 1 Ovary, 4 mM, read-out: Percent cytotoxicity) was 87.9 ± 6.4%. It also gave a cytotoxicity at 5000 µM (PA 1; PA 1 Ovary, 5 mM, read-out: Percent cytotoxicity) of 88.6 ± 6.9%, a cytotoxicity at 10000 µM (PA 1; PA 1 Ovary, 10 mM, read-out: Percent cytotoxicity) of 88 ± 6.9% and a cytotoxicity at 1000 µM (PTC; [1]) of 23.9 ± 3%. The cytotoxicity at 2500 µM (PTC; [2]) was 39 ± 5.2%, the cytotoxicity at 4000 µM (PTC; [3]) was 56.9 ± 5.9% and the cytotoxicity at 5000 µM (PTC; [4]) was 84.2 ± 7.4%. It also gave a cytotoxicity at 10000 µM (PTC; [5]) of 87.3 ± 6%, an IC50 (PTC; [6]) of 3800 ± 1100 µM and a cytotoxicity at 1000 µM (Miapaca2; MIA PaCa-2, 1.0 mM, read-out: Percent cytotoxicity) of 0%. The cytotoxicity at 2500 µM (Miapaca2; MIA PaCa-2, 2.5 mM, read-out: Percent cytotoxicity) was 3.9 ± 0.5%, the cytotoxicity at 4000 µM (Miapaca2; MIA PaCa-2, 4 mM, read-out: Percent cytotoxicity) was 46.8 ± 4.9% and the cytotoxicity at 5000 µM (Miapaca2; MIA PaCa-2, 5 mM, read-out: Percent cytotoxicity) was 57.9 ± 5.9%. For the same molecule, the cytotoxicity at 10000 µM (Miapaca2; MIA PaCa-2, 10 mM, read-out: Percent cytotoxicity) was 79.4 ± 4.8%, the IC50 (Miapaca2; MIA PaCa-2, 24 h, read-out: ED50 values of cytotoxicity) was 4200 ± 1100 µM and the cytotoxicity at 1000 µM (L132; [1]) was 0%. The cytotoxicity at 2500 µM (L132; [2]) was 0%, the cytotoxicity at 4000 µM (L132; [3]) was 0% and the cytotoxicity at 5000 µM (L132; [4]) was 4.9 ± 0.6%. The cytotoxicity at 10000 µM (L132; [5]) was 37.9 ± 3.5%, the IC50 (L132; [6]) was > 5000 µM and the cytotoxicity at 1000 µM (DU145; DU-145, 1.0 mM, read-out: Percent cytotoxicity) was 28.9 ± 4.2%. The cytotoxicity at 2500 µM (DU145; DU-145, 2.5 mM, read-out: Percent cytotoxicity) was 58.9 ± 4.9%, the cytotoxicity at 4000 µM (DU145; DU-145, 4 mM, read-out: Percent cytotoxicity) was 82.1 ± 7.3% and the cytotoxicity at 5000 µM (DU145; DU-145, 5 mM, read-out: Percent cytotoxicity) was 85.6 ± 7.3%. For the same molecule, the cytotoxicity at 10000 µM (DU145; DU-145, 10 mM, read-out: Percent cytotoxicity) was 87.9 ± 7.3%, the IC50 (DU145; DU-145, 24 h, read-out: ED50 values of cytotoxicity) was 1800 ± 300 µM and the IC50 (INT 407) was 2300 ± 1100 µM.
